Molecules are shown by their SMILES. Bounds are passed on as bounds.

The values below come from US8063095B2, “IAP BIR domain binding compounds” (Pharmascience Inc., priority 2005, dated 2011).

For one assay, the system named is MDA-MB-231 (breast) cancer cells. Put plainly: Cell viability (MTT) assay, MDA cells. Conditions: 72 hours, MTT based assay. Here is the method:
(§1) MDA-MD-231 (breast) and SKOV-3 (ovarian) cancer cells were cultured in RPMI1640 media supplemented with 10% FBS and 100 units/mL of Penicillin and Steptomycin.
(§2) Viability assays were done on a number of cells including MDA-MB-231, SKOV-3, H460, PC3, HCT-116, and SW480 cells. Cells were seeded in 96 well plates at a respective density of 5000 and 2000 cells per well and incubated at 37° C. in presence of 5% CO2 for 24 hours. Selected compounds were diluted into the media at various concentration ranging from 0.01 uM up to 100 uM. Diluted compounds were added onto the MDA-MB-231 cells. For the MDA-MB-231 SKOV3, H460, PC3, HCT-116, and SW480 cells, the compounds were added either alone or in presence of 1-3 ng/ml of TRAIL. After 72 hours cellular viability was evaluated by MTT based assays.
(Tetrazolium assays rely on reduction of a dye to a coloured formazan, in cell work by metabolically active cells.)
What is called EC50 is the concentration giving half of the maximal effect. For the compound `CN[C@@H](C)C(=O)N[C@@H](CCC(=O)NCCNC(=O)CC[C@H](NC(=O)[C@H](C)NC)C(=O)N1CCC[C@H]1CN(CCc1ccccc1)C(=O)C(F)(F)F)C(=O)N1CCC[C@H]1CN(CCc1ccccc1)C(=O)C(F)(F)F` [Compound 18], the EC50 is less than 1000 nM.

The same assay, now with this note: Homo sapiens, MDA-MB-231, 72 h, MTT based assay.
As to `CN[C@@H](C)C(=O)N[C@H](C(=O)N1CCC[C@H]1CN(CCc1ccccc1)C(C)=O)[C@@H](C)OCC#CC#CCO[C@H](C)[C@H](NC(=O)[C@H](C)NC)C(=O)N1CCC[C@H]1CN(CCc1ccccc1)C(C)=O` [Compound 5], the EC50 was less than 100 nM.

As for `CNCC(=O)N(CCc1ccccc1)C[C@@H]1CCCN1C(=O)[C@@H](NC(=O)[C@H](C)NC)[C@@H](C)OCC#CC#CCO[C@H](C)[C@H](NC(=O)[C@H](C)NC)C(=O)N1CCC[C@H]1CN(CCc1ccccc1)C(=O)CNC` [Compound 27], the EC50 is less than 1000 nM.

With `CN[C@@H](C)C(=O)N[C@H](C(=O)N1CCC[C@H]1CN(CCc1ccccc1)C(=O)C(F)F)[C@@H](C)OCC#CC#CCO[C@H](C)[C@H](NC(=O)[C@H](C)NC)C(=O)N1CCC[C@H]1CN(CCc1ccccc1)C(=O)C(F)F` [Compound 28], the EC50 is less than 100 nM.

`CN[C@@H](C)C(=O)N[C@H](C(=O)N1CCC[C@H]1C(=O)N[C@@H]1CCCc2ccccc21)[C@@H](C)OCCCCCCO[C@H](C)[C@H](NC(=O)[C@H](C)NC)C(=O)N1CCC[C@H]1C(=O)N[C@@H]1CCCc2ccccc21` [Compound 25] gave an EC50 of less than 100 nM.

As to `CN[C@@H](C)C(=O)N[C@H](C(=O)N1CCC[C@H]1CN(CCc1ccccc1)C(=O)c1ccc(OC)cc1)[C@@H](C)OCC#CC#CCO[C@H](C)[C@H](NC(=O)[C@H](C)NC)C(=O)N1CCC[C@H]1CN(CCc1ccccc1)C(=O)c1ccc(OC)cc1` [Compound 9], the EC50 was less than 100 nM.

A further assay relates to SKOV-3 (ovarian) cancer cells. Put plainly: Cell viability (MTT) assay, SKOV3 cells. Conditions: 72 hours, MTT based assay; compounds added either alone or in presence of 1-3 ng/ml of TRAIL. Here is the method:
as §1, §2
Consider `CN[C@@H](C)C(=O)NC(CCCNC(=O)c1ccc(C(=O)NCCC[C@H](NC(=O)[C@H](C)NC)C(=O)N2CCC[C@H]2C(=O)N[C@@H]2CCCc3ccccc32)cc1)C(=O)N1CCC[C@H]1CN(CCc1ccccc1)C(=O)C(F)(F)F` (some centres unmarked) [Compound 38], for which the EC50 was less than 100 nM.

With `CN[C@@H](C)C(=O)N[C@@H](CCCCNC(=O)NCCCC[C@H](NC(=O)[C@H](C)NC)C(=O)N1CCC[C@H]1CN(CCc1ccccc1)C(=O)C(F)(F)F)C(=O)N1CCC[C@H]1CN(CCc1ccccc1)C(=O)C(F)(F)F` [Compound 47], the EC50 is less than 1000 nM.

For `CN[C@@H](C)C(=O)N[C@@H](CCCNC(=O)CCCCC(=O)NCCC[C@H](NC(=O)[C@H](C)NC)C(=O)N1CCC[C@H]1CN(CCc1ccccc1)S(=O)(=O)c1ccc(F)cc1)C(=O)N1CCC[C@H]1CN(CCc1ccccc1)S(=O)(=O)c1ccc(F)cc1` [Compound 44], the EC50 is less than 1000 nM.

Consider `CN[C@@H](C)C(=O)N[C@@H](CCCCNC(=O)C(=O)NCCCC[C@H](NC(=O)[C@H](C)NC)C(=O)N1CCC[C@H]1CN(CCc1ccccc1)C(=O)C(F)(F)F)C(=O)N1CCC[C@H]1CN(CCc1ccccc1)C(=O)C(F)(F)F` [Compound 46], for which the EC50 was less than 100 nM.

Regarding `CN[C@@H](C)C(=O)N[C@@H](CC(=O)NCCNC(=O)C[C@H](NC(=O)[C@H](C)NC)C(=O)N1CCC[C@H]1CN(CCc1ccccc1)C(=O)C(F)(F)F)C(=O)N1CCC[C@H]1CN(CCc1ccccc1)C(=O)C(F)(F)F` [Compound 32], the EC50 is greater than 1000 nM.

Turning to `CN[C@@H](C)C(=O)N[C@@H](CCCNC(=O)CCCC(=O)NCCC[C@H](NC(=O)[C@H](C)NC)C(=O)N1CCC[C@H]1CN(CCc1ccccc1)S(=O)(=O)c1ccc(F)cc1)C(=O)N1CCC[C@H]1CN(CCc1ccccc1)S(=O)(=O)c1ccc(F)cc1` [Compound 43], the EC50 was less than 1000 nM.

Regarding `CN[C@@H](C)C(=O)NC(CCCNC(=O)CCC(=O)NCCC[C@H](NC(=O)[C@H](C)NC)C(=O)N1CCC[C@H]1CN(CCc1ccccc1)S(=O)(=O)c1ccc(F)cc1)C(=O)N1CCC[C@H]1CN(CCc1ccccc1)S(=O)(=O)c1ccc(F)cc1` (some centres unmarked) [Compound 40], the EC50 was less than 1000 nM.

`CN[C@@H](C)C(=O)N[C@@H](CCCNC(=O)C(=O)NCCC[C@H](NC(=O)[C@H](C)NC)C(=O)N1CCC[C@H]1CN(CCc1ccccc1)S(=O)(=O)c1ccc(F)cc1)C(=O)N1CCC[C@H]1CN(CCc1ccccc1)S(=O)(=O)c1ccc(F)cc1` [Compound 41]: the EC50 was less than 1000 nM.
